Results taken from patent US20240158391A1, “DERIVATIVES OF 4-(IMIDAZO[1,2-A]PYRIDIN-3-YL)-N-(PYRIDIN-3-YL) PYRIMIDIN-2- AMINE FOR TREATING PROLIFERATIVE DISEASES AND CONDITIONS” (AUCENTRA THERAPEUTICS PTY LTD, priority 2019, published 2024).

Experiments:
[1] = target: CDK1/CyclinB (Homo sapiens, UniProt P06493); experiment: ADP Glo kinase assay, CDK1/CyclinB; format: biochemical; conditions: for remaining activity at 1 µM: compound at 1 μM, read-out: Residual enzymatic activity (%) at 1 μM, CDK1 B; for Ki: Km ATP, read-out: Enzymatic inhibition, Ki, CDK1 B
In short: (§1)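 Test compounds were run as 1:3 serial dilutions over 10 concentrations (10-0.0005 μM) in 0.5% DMSO. Kinase reactions proceeded for an optimised time at room temperature before being stopped with ADP Glo reagent.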

[2] = target: CDK4/CyclinD1 (Homo sapiens, UniProt P11802); experiment: ADP Glo kinase assay, CDK4/CyclinD1; format: biochemical; conditions: compound at 1 μM, read-out: Residual enzymatic activity (%) at 1 μM, CDK4 D1
In short: as §1

[3] = tested on: MV-4-11; experiment: Proliferation assay (resazurin, leukemia cell lines), MV-4-11; format: cell-based; conditions: Homo sapiens, MV4-11, read-out: 72 h Growth inhibition GI50, MV-4-11 cells
Description: The following compounds were used as comparators.

[4] = target: CDK9/CyclinT1 (Homo sapiens, UniProt P50750); experiment: ADP Glo kinase assay, CDK9/CyclinT1; format: biochemical; conditions: CDK9/CyclinT1; Km ATP; read-out: Enzymatic inhibition, Ki, CDK9 T1
In short: as §1

[5] = target: CDK7/CyclinH/Mat1 (Homo sapiens, UniProt P50613); experiment: ADP Glo kinase assay, CDK7/CyclinH/Mat1; format: biochemical; conditions: for Ki: Km ATP, read-out: Enzymatic inhibition, Ki, CDK7 H; for remaining activity at 1 µM: compound at 1 μM, read-out: Residual enzymatic activity (%) at 1 μM, CDK7 H
In short: as §1

[6] = target: CDK2/CyclinA2 (Homo sapiens, UniProt P24941); experiment: ADP Glo kinase assay, CDK2/CyclinA2; format: biochemical; conditions: for Ki: Km ATP, read-out: Enzymatic inhibition, Ki, CDK2 A; for remaining activity at 1 µM: compound at 1 μM, read-out: Residual enzymatic activity (%) at 1 μM, CDK2 A
In short: as §1

[7] = target: T1, FLT3-ITD (Homo sapiens, UniProt P36888); experiment: ADP Glo kinase assay, FLT3-ITD; format: biochemical; conditions: Km ATP 100 μM, read-out: Enzymatic inhibition, Ki, FLT3-ITD
T1 sequence (P36888 1-993): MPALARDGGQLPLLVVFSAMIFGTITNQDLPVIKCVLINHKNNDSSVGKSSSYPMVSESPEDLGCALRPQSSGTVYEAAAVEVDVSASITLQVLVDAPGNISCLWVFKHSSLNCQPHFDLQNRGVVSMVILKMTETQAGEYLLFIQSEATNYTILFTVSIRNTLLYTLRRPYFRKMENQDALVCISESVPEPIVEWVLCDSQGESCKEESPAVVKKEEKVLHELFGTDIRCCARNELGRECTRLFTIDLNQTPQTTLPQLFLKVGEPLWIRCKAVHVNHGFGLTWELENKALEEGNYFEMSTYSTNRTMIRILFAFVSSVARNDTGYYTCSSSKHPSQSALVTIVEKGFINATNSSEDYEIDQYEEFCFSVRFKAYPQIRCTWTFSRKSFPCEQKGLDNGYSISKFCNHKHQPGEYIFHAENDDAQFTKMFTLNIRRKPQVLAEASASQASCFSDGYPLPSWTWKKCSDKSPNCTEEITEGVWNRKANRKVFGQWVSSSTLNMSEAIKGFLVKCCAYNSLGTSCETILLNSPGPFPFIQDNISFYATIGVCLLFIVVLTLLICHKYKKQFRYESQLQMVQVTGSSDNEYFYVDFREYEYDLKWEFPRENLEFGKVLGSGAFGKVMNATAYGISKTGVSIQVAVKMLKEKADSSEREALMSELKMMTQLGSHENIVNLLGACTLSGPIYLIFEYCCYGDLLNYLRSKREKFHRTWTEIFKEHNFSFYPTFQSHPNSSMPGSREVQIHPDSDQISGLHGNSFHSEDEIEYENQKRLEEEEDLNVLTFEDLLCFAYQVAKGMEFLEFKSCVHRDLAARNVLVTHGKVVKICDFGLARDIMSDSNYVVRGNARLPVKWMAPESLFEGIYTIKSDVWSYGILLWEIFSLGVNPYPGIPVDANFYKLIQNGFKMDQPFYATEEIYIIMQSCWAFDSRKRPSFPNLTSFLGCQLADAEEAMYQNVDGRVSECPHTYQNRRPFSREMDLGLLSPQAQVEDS
In short: as §1

[8] = target: CDK6/CyclinD3 (Homo sapiens, UniProt Q00534); experiment: ADP Glo kinase assay, CDK6/CyclinD3; format: biochemical; conditions: for remaining activity at 1 µM: compound at 1 μM, read-out: Residual enzymatic activity (%) at 1 μM, CDK6 D3; for Ki: Km ATP, read-out: Enzymatic inhibition, Ki, CDK6 D3
In short: as §1

Chain of CDK4/CyclinD1 (P11802 whole entry, species assumed): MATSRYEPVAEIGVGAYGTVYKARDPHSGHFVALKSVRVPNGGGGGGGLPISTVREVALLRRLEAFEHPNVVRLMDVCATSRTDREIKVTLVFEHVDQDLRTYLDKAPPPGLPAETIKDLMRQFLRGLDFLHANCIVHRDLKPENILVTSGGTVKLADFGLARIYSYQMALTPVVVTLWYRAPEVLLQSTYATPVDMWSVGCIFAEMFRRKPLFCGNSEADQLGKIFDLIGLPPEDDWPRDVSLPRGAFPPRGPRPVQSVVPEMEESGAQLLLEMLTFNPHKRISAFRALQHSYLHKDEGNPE
Chain of CDK4/CyclinD1 (P24385 whole entry partner, species assumed): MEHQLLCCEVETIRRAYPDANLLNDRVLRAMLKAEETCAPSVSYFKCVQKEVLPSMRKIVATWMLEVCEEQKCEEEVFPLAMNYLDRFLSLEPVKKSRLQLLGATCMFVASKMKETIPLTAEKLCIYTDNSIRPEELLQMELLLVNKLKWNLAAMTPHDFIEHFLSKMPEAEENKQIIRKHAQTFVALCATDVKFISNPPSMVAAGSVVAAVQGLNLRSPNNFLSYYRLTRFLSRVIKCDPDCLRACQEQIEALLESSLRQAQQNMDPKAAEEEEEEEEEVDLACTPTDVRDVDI
Chain of CDK6/CyclinD3 (Q00534 whole entry, species assumed): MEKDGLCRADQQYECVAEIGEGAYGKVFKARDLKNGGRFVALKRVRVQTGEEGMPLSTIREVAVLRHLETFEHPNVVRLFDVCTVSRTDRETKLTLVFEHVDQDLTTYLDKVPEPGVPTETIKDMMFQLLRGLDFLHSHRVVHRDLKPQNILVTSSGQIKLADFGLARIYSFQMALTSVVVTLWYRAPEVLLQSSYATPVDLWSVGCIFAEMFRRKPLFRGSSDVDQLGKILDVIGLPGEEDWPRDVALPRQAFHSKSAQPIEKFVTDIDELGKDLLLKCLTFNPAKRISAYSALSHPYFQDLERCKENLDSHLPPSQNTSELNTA
Chain of CDK6/CyclinD3 (P30281 whole entry partner, species assumed): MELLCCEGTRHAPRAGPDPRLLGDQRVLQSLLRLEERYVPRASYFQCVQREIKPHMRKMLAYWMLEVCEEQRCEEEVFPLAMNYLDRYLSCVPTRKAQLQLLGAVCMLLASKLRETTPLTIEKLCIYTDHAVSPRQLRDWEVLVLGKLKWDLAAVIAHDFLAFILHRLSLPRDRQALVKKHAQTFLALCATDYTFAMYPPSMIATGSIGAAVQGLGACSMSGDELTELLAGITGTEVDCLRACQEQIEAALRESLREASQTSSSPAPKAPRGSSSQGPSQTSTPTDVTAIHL
Chain of CDK1/CyclinB (P06493 whole entry, species assumed): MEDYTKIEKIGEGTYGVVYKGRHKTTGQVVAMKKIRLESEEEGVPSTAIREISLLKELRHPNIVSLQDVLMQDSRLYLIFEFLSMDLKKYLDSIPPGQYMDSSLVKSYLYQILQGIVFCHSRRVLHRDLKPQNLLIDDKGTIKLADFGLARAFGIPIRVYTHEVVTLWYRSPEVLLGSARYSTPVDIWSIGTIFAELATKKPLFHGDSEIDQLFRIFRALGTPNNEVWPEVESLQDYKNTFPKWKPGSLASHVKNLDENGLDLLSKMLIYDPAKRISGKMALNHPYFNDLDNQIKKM
Chain of CDK1/CyclinB (P14635 whole entry partner, species assumed): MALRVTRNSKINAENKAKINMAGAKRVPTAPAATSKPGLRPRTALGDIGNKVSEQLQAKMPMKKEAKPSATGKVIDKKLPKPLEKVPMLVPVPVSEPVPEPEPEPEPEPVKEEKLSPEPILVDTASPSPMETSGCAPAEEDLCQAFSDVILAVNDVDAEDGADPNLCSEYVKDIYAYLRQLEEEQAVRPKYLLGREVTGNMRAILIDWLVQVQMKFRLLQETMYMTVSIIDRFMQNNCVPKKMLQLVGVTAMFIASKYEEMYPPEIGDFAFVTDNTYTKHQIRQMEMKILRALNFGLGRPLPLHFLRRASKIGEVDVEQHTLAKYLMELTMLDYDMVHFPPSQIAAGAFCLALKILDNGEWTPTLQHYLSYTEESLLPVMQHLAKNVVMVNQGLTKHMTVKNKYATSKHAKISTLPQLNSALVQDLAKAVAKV
Chain of CDK9/CyclinT1 (P50750 whole entry, species assumed): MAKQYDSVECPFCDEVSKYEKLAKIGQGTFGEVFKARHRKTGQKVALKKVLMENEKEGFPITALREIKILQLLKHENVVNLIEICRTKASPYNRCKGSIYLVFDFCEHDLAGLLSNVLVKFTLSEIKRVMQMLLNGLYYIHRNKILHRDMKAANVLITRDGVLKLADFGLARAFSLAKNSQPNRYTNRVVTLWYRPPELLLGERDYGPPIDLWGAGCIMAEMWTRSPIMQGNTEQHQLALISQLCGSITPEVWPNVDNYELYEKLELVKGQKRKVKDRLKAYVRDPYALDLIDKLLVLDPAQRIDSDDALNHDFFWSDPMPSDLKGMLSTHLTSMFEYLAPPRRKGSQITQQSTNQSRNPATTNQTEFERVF
Chain of CDK9/CyclinT1 (O60563 whole entry partner, species assumed): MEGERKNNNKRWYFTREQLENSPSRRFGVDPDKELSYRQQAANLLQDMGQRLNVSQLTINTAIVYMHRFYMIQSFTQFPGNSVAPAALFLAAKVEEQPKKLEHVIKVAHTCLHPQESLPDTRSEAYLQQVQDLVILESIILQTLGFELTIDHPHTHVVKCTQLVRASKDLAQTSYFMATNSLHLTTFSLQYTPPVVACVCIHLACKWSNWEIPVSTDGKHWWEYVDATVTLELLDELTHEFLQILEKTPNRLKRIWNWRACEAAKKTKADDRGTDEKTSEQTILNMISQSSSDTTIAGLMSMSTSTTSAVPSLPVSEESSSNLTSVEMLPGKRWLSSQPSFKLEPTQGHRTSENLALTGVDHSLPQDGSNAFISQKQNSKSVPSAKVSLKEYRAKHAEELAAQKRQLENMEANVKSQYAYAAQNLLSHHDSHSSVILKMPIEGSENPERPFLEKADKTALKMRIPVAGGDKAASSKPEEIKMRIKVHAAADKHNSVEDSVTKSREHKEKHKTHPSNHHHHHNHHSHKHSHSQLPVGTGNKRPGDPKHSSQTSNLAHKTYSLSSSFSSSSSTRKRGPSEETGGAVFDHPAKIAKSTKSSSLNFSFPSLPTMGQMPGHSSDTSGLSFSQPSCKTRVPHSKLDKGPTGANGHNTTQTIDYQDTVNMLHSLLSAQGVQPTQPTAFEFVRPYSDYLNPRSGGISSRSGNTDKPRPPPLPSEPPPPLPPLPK
Chain of CDK7/CyclinH/Mat1 (P50613 whole entry, species assumed): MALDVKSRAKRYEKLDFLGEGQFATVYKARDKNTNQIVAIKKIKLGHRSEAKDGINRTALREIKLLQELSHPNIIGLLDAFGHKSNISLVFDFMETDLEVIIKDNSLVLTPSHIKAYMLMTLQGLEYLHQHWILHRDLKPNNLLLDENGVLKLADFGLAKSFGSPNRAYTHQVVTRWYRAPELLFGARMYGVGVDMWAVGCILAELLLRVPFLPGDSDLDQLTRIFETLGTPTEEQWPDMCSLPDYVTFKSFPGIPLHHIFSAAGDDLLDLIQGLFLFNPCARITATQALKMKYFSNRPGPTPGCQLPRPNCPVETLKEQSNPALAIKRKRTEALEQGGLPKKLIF
Chain of CDK7/CyclinH/Mat1 (P51946 whole entry partner, species assumed): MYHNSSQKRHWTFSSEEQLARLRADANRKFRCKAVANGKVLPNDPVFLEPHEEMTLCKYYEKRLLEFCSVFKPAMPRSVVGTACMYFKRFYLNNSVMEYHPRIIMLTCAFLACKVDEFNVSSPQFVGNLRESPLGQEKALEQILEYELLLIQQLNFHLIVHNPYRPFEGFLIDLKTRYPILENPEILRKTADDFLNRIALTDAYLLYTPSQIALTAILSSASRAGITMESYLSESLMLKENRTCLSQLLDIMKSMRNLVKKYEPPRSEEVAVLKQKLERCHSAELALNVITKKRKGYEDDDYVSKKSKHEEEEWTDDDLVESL
Chain of CDK7/CyclinH/Mat1 (P51948 whole entry partner, species assumed): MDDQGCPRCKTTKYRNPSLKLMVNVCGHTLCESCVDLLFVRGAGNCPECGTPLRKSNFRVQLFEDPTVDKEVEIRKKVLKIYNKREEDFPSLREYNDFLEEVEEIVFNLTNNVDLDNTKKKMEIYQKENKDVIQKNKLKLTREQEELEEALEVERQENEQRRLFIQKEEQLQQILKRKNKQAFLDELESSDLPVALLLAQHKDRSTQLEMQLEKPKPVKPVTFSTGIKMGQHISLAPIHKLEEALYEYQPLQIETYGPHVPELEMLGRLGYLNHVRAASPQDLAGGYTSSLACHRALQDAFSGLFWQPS

Row | remaining activity at 1 µM [1] [%] | remaining activity at 1 µM [2] [%] | GI50 [3] [nM] | Ki [4] [nM] | Ki [5] [nM] | Ki [6] [nM] | Ki [7] [nM] | remaining activity at 1 µM [8] [%] | remaining activity at 1 µM [5] [%] | remaining activity at 1 µM [6] [%] | Ki [1] [nM] | Ki [8] [nM] | Compound
1 | 46 | 55 | 88 | 9 | 149 | 563 | 12 | 41 |  |  |  |  | CC(C)N1CCN(c2ccc(Nc3nccc(-c4cnc5ccc(-c6ccccc6)cn45)n3)cn2)CC1 [Compound 39, N-(6-(4-Isopropylpiperazin-1-yl)pyridin-3-yl)-4-(6-phenylimidazo[1,2-a]pyridin-3-yl)pyrimidin-2-amine]
2 | 41 | 57 | 47 | 12 |  | 344 | 11 | 52 | 32 |  |  |  | CC(C)N1CCN(c2ccc(Nc3nccc(-c4cnc5ccc(-c6ccncc6)cn45)n3)cn2)CC1 [Compound 40, N-(6-(4-Isopropylpiperazin-1-yl)pyridin-3-yl)-4-(6-(pyridin-4-yl)imidazo[1,2-a]pyridin-3-yl)pyrimidin-2-amine]
3 | 31 | 53 | 27 | 91 |  |  | 32 | 70 | 77 | 22 |  |  | CC(=O)N1CCN(c2ccc(Nc3nccc(-c4cnc5ccccn45)n3)cn2)CC1 [Compound 41, 1-(4-(5-((4-(Imidazo[1,2-a]pyridin-3-yl)pyrimidin-2-yl)amino)pyridin-2-yl)piperazin-1-yl)ethan-1-one]
4 |  | 24 | 22 | 29 |  | 31 | 9 |  | 27 |  | 78 | > 500 | Brc1ccc2ncc(-c3ccnc(Nc4ccc(N5CCNCC5)nc4)n3)n2c1 [Compound 42, 4-(6-Bromoimidazo[1,2-a]pyridin-3-yl)-N-(6-(piperazin-1-yl)pyridin-3-yl)pyrimidin-2-amine]
5 | 67 | 68 | 40 | 66 |  |  | 24 | 46 | 41 | 46 |  |  | COc1ccc(-c2ccc3ncc(-c4ccnc(Nc5ccc(N6CCN(C)CC6)nc5)n4)n3c2)cn1 [Compound 43, 4-(6-(6-Methoxypyridin-3-yl)imidazo[1,2-a]pyridin-3-yl)-N-(6-(4-methylpiperazin-1-yl)pyridin-3-yl)pyrimidin-2-amine]
6 | 56 | 84 | 21 | 719 |  |  | 137 | 55 | 77 | 28 |  |  | CC(=O)N1CCN(c2ccc(Nc3nccc(-c4cnc5ccc(Br)cn45)n3)cn2)CC1 [Compound 44, 1-(4-(5-((4-(6-Bromoimidazo[1,2-a]pyridin-3-yl)pyrimidin-2-yl)amino)pyridin-2-yl)piperazin-1-yl)ethan-1-one]
7 | 60 | 91 | 12 | 54 |  |  | 444 | 60 | 79 | 63 |  |  | CC(=O)N1CCN(c2ccc(Nc3nccc(-c4cnc5ccc(-c6ccccc6)cn45)n3)cn2)CC1 [Compound 45, 1-(4-(5-((4-(6-Phenylimidazo[1,2-a]pyridin-3-yl)pyrimidin-2-yl)amino)pyridin-2-yl)piperazin-1-yl)ethan-1-one]
8 | 21 | 92 | 25 | 310 |  |  | 80 | 31 | 71 | 62 |  |  | CC(=O)N1CCN(c2ccc(Nc3nccc(-c4cnc5ccc(-c6ccncc6)cn45)n3)cn2)CC1 [Compound 46, 1-(4-(5-((4-(6-(Pyridin-4-yl)imidazo[1,2-a]pyridin-3-yl)pyrimidin-2-yl)amino)pyridin-2-yl)piperazin-1-yl)ethan-1-one]
9 |  | 51 | 29 | 45 | 262 | 39 | 25 |  |  |  | 116 | 444 | CC(=O)N1CCN(c2ccc(Nc3nccc(-c4cnc5ccc(-c6cn[nH]c6)cn45)n3)cn2)CC1 [Compound 47, 1-(4-(5-((4-(6-(1H-Pyrazol-4-yl)imidazo[1,2-a]pyridin-3-yl)pyrimidin-2-yl)amino)pyridin-2-yl)piperazin-1-yl)ethan-1-one]
10 | 58 | 86 | 18 | 274 |  |  | 86 | 30 | 75 | 34 |  |  | COc1ccc(-c2ccc3ncc(-c4ccnc(Nc5ccc(N6CCN(C(C)=O)CC6)nc5)n4)n3c2)cn1 [Compound 48, 1-(4-(5-((4-(6-(6-Methoxypyridin-3-yl)imidazo[1,2-a]pyridin-3-yl)pyrimidin-2-yl)amino)pyridin-2-yl)piperazin-1-yl)ethan-1-one]
11 | 94 | 92 | 17 | 171 |  |  | > 500 | 38 | 81 | 51 |  |  | CC(=O)N1CCN(c2ccc(Nc3nccc(-c4cnc5ccc(-c6cccc7[nH]ccc67)cn45)n3)cn2)CC1 [Compound 49, 1-(4-(5-((4-(6-(1H-Indol-4-yl)imidazo[1,2-a]pyridin-3-yl)pyrimidin-2-yl)amino)pyridin-2-yl)piperazin-1-yl)ethan-1-one]
12 | 91 | 94 | 813 | 410 |  |  | 210 | 79 | 51 | 90 |  |  | Cc1cnc(Nc2ccc(N3CCN(C)CC3)nc2)nc1-c1cnc2ccc(-c3ccccc3)cn12 [Compound 50, 5-Methyl-N-(6-(4-methylpiperazin-1-yl)pyridin-3-yl)-4-(6-phenylimidazo[1,2-a]pyridin-3-yl)pyrimidin-2-amine]
13 | 77 | 96 | 17 | 286 |  |  | > 500 | 43 | 80 | 85 |  |  | CS(=O)(=O)N1CCN(c2ccc(Nc3nccc(-c4cnc5ccc(-c6ccco6)cn45)n3)cn2)CC1 [Compound 51, 4-(6-(Furan-2-yl)imidazo[1,2-a]pyridin-3-yl)-N-(6-(4-(methylsulfonyl)piperazin-1-yl)pyridin-3-yl)pyrimidin-2-amine]
14 | 32 | 48 | 50 | 14 |  | 376 | 11 | 24 | 29 |  |  |  | CC(C)N1CCN(c2ccc(Nc3nccc(-c4cnc5ccc(-c6ccsc6)cn45)n3)cn2)CC1 [Compound 54, N-(6-(4-Isopropylpiperazin-1-yl)pyridin-3-yl)-4-(6-(thiophen-3-yl)imidazo[1,2-a]pyridin-3-yl)pyrimidin-2-amine]
